These results are taken from patent US11072638B2, “Immunostimulating peptides” (AIMVION A/S, priority 2016, dated 2021).

Bridge positions count the residues as written; N and C are the ends. Ends that are not written are not given here. I, II: the chains in the order shown.

In assay [1] the test system is THP-1 cells. Kind of assay: IL-6 levels in LPS-stimulated THP-1 cells, 6 h (Example 1). It counts as cell-based, human. To be noted: for % IL-6 secretion level compared to LPS-stimulated control: THP-1, 1 μg/μl LPS for 6 h, + above, − below LPS-only control (100%); for Release of cytokines, including pro-inflammatory cytokines such as IL-6, TNF-alpha, and IL-8: pre-treatment of cells with peptide. The method, then:
The modulatory function of peptides SG #4, SG #8, SG #13, and SG #14 on the expression levels of IL-6 in the human acute monocytic leukaemia cell line THP-1 was examined. THP-1 cells were maintained in RPMI 1640 supplemented with 10% FBS, 100 U/ml penicillin, 100 μg/ml streptomycin and 2 mM L-glutamine at 37° C. in a 5% CO2 incubator. THP-1 cells are known to induce IL-6, TNFα, IL-10 and IL-8 mRNA and protein in response to lipopolysaccharide (LPS) treatment. THP-1 cells were left untreated or incubated with 0 uM, 7.5 μM, 15 μM, 30 μM, 60 μM or 100 μm of each of the peptides, and stimulated with […] LPS for 6 h, based on previous analyses to find the optimal dose and incubation times.
(−) inhibition indicates percentage (%) of inhibition as compared to only LPS treated samples (arbitrarily set at 100%).

For assay [2], the system named is female BALB/c mice. Kind of assay: Anti-ovalbumin IgG1 ELISA after in vivo immunization of mice (Example 3). The following applies: s.c. day 1 and day 14, 5 μg SG#4 + 50/25 μg ovalbumin per animal, serum at day 21. The source says: Chicken ovalbumin has been used to trigger T cell activation in immunology studies. Ovalbumin immunized mice produce anti-OVA antibodies predominantly of the IgG1 and IgE isotypes that mediate tissue-specific effector functions in multiple mouse models. Thus, it is often desirable to measure anti-OVA antibody levels in the plasma or serum to determine the effectiveness of the immunization/induction of a TH2-mediated immune response. Here, we tested the effectiveness of the SG #4 peptide in inducing of a TH2-mediated immune response in female BALB/c mice. The study agents contained Ovalbumin alone, peptide construct SG #4 alone or ovalbumin in combination with SG #4. […]
An ELISA assay was carried out according to the manufacturer's protocol, as follows. […] This Goat Anti-mouse IgG1 was labeled with HRP, allowing quantification of the […]. Addition of the HRP Substrate 3,3′,5,5′-tetramethylbenzidine (TMB), following by Stop Solution produces a yellow colored product which was measured spectrophotometrically. […] 1 mL of the top standard concentration (250 pg/mL anti-ovalbumin IgG1 quantification) was prepared in 1× Assay Diluent A (1×AD) from the anti-ovalbumin IgG1 stock solution. […] Using computer reduction software, absorbance (linear y-axis) for standard versus concentration (linear x-axis) is plotted and data is fitted with a quadratic equation. […]
For orientation: In an ELISA, binding on a coated surface is turned into a signal by an enzyme label.

In the case of “LQNKRGLGLSILLNEECGPGPGP (disulfide I:17-II:17 (inferred)) [SG#8]”, the “% IL-6 secretion level compared to LPS-stimulated control” value (“% IL-6 secretion level” for short) in assay [1] (7.5 μM peptide) is “+1.472%”; in assay [1] (15 μM peptide), “+14.54%”; in assay [1] (30 μM peptide), “+6.835%”; in assay [1] (60 μM peptide), “+7.655%”; in assay [1] (100 μM peptide) it was “+20.86%”. Further, the “Release of cytokines, including pro-inflammatory cytokines such as IL-6, TNF-alpha, and IL-8” value (“Release of cytokines” for short) in assay [1] is on record as “promotes the release of cytokines”.
With “LQNRRGLGLSILLNC (disulfide I:15-II:15 (inferred)) [SG#4]”, the “% IL-6 secretion level” value in assay [1] (7.5 μM peptide) is “+12.99%”; in assay [1] (15 μM peptide), “+20.76%”; in assay [1] (30 μM peptide) it was “+38.19%”; in assay [1] (60 μM peptide), “+36.39%”; in assay [1] (100 μM peptide) it was “+13.27%”. In addition, in assay [1], the “Release of cytokines” value was “promotes the release of cytokines”. Moreover, in assay [2], the “Induction of immune response (anti-ovalbumin IgG1) versus ovalbumin alone” value was “significantly higher induction of immune response”.
With “LQNRRGLGLSILLNEE (Mutated sequence) [SG#13]”, the “% IL-6 secretion level” value is −5.765% in assay [1] (7.5 μM peptide); “+6.907%” in assay [1] (15 μM peptide); −5.286% in assay [1] (30 μM peptide); “+8.616%” in assay [1] (60 μM peptide); “+36.98%” in assay [1] (100 μM peptide). Also, the “Release of cytokines” value in assay [1] is “promotes the release of cytokines”.
For the sequence “LQNRRGLGLSILLNEELQNRRGL (Mutated sequence) [SG#14]”, the “% IL-6 secretion level” value in assay [1] (7.5 μM peptide) is −2.981%; in assay [1] (15 μM peptide), −0.4476%; in assay [1] (30 μM peptide) it was “+0.7403%”; in assay [1] (60 μM peptide) it was “+28.52%”; in assay [1] (100 μM peptide), “+15.21%”. Besides, the “Release of cytokines” value in assay [1] was “promotes the release of cytokines”.
